From the kinase profiling compilation of Christmann-Franck et al. (2016)

Experiments:
Assay in all cases: radiometric filter-binding kinase assay, Kinase HotSpot
Conditions in all cases: compound 0.5 µM; ATP 10 µM
[1] = biological target: PRKCZ (human) (UniProt Q05513)
[2] = biological target: NEK11 (human) (UniProt Q8NG66)
[3] = biological target: MAPK9 (human) (UniProt P45984)
[4] = biological target: CAMK4 (human) (UniProt Q16566)
[5] = biological target: MET (human) (UniProt P08581)
[6] = biological target: PAK6 (human) (UniProt Q9NQU5)
[7] = biological target: HIPK2 (human) (UniProt Q9H2X6)
[8] = biological target: NTRK2 (human) (UniProt Q16620)
[9] = biological target: CDC42BPB (human) (UniProt Q9Y5S2)
Sequence of CDC42BPB (human) (Q9Y5S2 whole entry, looked up): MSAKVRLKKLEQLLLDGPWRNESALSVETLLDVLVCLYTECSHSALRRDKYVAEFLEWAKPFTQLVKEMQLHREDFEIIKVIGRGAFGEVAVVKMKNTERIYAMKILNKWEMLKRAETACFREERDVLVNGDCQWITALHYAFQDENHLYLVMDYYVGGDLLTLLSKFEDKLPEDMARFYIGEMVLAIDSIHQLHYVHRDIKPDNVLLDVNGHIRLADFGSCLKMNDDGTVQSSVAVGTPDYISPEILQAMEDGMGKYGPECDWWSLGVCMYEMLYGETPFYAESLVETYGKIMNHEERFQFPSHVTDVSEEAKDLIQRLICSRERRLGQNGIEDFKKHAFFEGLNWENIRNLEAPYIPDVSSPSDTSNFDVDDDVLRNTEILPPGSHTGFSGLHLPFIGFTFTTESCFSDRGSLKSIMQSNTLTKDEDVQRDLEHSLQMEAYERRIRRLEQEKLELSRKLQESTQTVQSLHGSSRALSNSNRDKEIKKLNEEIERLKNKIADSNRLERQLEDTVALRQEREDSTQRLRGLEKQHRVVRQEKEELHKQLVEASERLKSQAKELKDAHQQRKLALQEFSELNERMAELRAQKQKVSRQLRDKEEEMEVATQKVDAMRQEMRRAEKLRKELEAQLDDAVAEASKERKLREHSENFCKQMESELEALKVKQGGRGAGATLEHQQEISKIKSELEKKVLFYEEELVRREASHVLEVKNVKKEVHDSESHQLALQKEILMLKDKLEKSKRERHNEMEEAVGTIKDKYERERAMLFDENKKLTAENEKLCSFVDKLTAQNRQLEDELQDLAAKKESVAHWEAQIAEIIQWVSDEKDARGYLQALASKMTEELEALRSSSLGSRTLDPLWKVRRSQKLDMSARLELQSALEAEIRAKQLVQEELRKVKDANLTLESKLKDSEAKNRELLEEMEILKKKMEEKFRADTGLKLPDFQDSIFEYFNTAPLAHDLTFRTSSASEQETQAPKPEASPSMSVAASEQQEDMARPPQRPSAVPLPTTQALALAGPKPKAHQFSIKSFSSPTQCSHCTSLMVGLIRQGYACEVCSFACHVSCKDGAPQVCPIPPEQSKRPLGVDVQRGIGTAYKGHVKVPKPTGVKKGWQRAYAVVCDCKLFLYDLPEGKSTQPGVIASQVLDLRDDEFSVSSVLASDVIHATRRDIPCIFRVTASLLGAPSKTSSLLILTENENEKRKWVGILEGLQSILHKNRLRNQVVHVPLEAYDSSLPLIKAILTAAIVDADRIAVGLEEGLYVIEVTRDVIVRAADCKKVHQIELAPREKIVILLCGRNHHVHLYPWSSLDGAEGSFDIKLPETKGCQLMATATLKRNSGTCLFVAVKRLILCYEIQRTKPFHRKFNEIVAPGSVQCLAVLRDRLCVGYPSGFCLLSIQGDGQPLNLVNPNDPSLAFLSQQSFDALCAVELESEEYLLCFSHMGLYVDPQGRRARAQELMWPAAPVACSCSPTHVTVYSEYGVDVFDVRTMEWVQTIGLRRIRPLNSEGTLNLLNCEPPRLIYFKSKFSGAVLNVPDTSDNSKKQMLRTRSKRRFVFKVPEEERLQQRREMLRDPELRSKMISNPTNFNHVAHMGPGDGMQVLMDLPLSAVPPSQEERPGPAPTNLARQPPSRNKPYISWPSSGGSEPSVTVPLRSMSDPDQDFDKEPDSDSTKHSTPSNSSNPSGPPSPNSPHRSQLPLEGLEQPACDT

[10] = biological target: VRK1 (human) (UniProt Q99986)
[11] = biological target: MAP3K3 (human) (UniProt Q99759)
[12] = biological target: MAP3K11 (human) (UniProt Q16584)
[13] = biological target: PAK3 (human) (UniProt O75914)
[14] = biological target: TXK (human) (UniProt P42681)
[15] = biological target: STK11 (human) (UniProt Q15831)
[16] = biological target: RPS6KA5 KD2 (human) (UniProt O75582)
[17] = biological target: DAPK3 (human) (UniProt O43293)
[18] = biological target: MYLK2 (human) (UniProt Q9H1R3)
[19] = biological target: RET (human) (UniProt P07949)
[20] = biological target: STK24 (human) (UniProt Q9Y6E0)
[21] = biological target: PRKCB2 (human) (UniProt P05771)
Sequence of PRKCB2 (human) (P05771 whole entry, looked up): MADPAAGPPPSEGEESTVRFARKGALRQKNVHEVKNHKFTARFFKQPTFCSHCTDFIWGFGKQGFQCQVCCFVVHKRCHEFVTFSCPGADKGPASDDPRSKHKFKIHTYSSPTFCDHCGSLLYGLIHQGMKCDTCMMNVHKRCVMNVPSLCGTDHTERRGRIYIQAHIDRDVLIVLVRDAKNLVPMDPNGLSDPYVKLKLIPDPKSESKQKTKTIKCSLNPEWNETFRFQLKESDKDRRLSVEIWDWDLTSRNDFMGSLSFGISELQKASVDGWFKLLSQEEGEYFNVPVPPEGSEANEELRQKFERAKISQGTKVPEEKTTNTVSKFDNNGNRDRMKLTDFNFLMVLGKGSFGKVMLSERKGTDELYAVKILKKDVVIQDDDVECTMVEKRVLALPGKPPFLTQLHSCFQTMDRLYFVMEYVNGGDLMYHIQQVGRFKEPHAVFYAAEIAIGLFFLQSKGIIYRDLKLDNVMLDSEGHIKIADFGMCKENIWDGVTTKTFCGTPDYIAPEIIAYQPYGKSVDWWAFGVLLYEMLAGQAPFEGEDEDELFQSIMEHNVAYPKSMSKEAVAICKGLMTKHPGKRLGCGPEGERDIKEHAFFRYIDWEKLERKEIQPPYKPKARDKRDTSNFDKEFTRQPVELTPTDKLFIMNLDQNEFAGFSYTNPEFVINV

[22] = biological target: MELK (human) (UniProt Q14680)
[23] = biological target: MAPKAPK5 (human) (UniProt Q8IW41)
Sequence of MAPKAPK5 (human) (Q8IW41 whole entry, looked up): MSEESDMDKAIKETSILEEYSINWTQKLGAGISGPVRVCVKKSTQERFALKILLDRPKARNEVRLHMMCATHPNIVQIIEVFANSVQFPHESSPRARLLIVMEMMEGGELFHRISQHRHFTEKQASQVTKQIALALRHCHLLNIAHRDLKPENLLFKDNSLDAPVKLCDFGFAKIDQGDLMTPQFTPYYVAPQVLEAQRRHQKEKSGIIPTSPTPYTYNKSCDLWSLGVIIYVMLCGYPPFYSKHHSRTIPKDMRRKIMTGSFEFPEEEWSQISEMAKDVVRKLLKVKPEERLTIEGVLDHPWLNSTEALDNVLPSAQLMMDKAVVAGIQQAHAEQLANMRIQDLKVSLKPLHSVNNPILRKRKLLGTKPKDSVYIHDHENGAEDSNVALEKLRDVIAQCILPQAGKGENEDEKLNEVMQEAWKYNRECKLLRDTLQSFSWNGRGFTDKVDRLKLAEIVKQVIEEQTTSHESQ

[24] = biological target: BRSK1 (human) (UniProt Q8TDC3)
Sequence of BRSK1 (human) (Q8TDC3 whole entry, looked up): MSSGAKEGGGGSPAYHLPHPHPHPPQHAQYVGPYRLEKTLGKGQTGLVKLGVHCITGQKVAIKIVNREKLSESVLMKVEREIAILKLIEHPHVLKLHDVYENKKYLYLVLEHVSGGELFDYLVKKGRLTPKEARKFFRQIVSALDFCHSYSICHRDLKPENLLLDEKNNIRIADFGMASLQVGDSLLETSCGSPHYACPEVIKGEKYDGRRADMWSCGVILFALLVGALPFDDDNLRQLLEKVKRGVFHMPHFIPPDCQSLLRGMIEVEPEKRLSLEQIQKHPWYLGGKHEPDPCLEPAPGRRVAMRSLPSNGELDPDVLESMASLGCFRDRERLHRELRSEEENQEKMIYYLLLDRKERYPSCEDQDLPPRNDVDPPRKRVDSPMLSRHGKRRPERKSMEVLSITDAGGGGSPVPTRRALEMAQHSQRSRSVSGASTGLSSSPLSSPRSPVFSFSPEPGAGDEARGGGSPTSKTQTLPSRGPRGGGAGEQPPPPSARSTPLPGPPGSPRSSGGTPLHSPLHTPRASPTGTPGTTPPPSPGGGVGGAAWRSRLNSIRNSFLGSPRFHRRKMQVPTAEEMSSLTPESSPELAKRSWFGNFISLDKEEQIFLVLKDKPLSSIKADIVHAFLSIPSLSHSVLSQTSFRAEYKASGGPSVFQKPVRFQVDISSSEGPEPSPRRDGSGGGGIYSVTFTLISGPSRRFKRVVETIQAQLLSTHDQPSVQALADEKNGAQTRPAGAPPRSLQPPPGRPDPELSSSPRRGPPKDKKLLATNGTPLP

[25] = biological target: EPHA4 (human) (UniProt P54764)
[26] = biological target: ADRBK2 (human) (UniProt P35626)
Sequence of ADRBK2 (human) (P35626 whole entry, looked up): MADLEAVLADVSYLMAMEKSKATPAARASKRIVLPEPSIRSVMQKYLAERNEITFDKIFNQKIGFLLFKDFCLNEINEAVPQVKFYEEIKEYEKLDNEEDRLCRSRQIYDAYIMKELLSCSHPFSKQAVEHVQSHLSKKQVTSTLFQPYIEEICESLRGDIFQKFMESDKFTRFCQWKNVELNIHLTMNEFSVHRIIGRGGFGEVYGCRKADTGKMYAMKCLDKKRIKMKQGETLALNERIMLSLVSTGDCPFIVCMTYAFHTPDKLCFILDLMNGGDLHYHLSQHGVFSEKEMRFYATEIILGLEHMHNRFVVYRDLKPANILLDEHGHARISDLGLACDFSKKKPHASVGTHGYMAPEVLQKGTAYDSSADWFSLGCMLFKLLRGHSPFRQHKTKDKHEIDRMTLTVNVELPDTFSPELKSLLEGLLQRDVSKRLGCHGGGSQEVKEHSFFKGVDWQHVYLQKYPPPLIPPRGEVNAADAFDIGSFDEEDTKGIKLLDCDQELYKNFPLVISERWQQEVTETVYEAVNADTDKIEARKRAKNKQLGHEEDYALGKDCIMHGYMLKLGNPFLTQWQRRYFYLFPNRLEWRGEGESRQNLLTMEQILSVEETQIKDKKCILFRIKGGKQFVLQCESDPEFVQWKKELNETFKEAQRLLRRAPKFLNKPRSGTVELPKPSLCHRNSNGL

[27] = biological target: HIPK4 (human) (UniProt Q8NE63)
[28] = biological target: ZAP70 (human) (UniProt P43403)
Sequence of ZAP70 (human) (P43403 whole entry, looked up): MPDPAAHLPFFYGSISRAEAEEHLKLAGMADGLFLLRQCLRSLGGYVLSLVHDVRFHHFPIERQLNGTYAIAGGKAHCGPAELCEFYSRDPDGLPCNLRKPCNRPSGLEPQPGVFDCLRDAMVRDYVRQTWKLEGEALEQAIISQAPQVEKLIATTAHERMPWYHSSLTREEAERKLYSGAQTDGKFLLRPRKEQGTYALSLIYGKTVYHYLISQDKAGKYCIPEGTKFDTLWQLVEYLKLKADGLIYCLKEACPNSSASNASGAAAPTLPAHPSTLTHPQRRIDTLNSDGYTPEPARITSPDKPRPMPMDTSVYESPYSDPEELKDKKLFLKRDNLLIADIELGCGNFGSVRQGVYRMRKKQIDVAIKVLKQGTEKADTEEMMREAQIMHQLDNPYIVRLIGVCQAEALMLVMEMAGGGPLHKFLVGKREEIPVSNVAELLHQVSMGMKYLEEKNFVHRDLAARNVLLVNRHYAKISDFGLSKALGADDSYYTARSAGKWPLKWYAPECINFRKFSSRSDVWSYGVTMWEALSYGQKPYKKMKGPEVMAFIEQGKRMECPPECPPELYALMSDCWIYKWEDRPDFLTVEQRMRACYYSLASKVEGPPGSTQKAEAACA

[29] = biological target: ROCK2 (human) (UniProt O75116)
[30] = biological target: IGF1R (human) (UniProt P08069)
[31] = biological target: MARK4 (human) (UniProt Q96L34)
[32] = biological target: CAMKK1 (human) (UniProt Q8N5S9)
[33] = biological target: ALK (human) (UniProt Q9UM73)
[34] = biological target: PRKCE (human) (UniProt Q02156)
[35] = biological target: MKNK2 (human) (UniProt Q9HBH9)
[36] = biological target: MARK1 (human) (UniProt Q9P0L2)
[37] = biological target: CDK2 CCNA2 (human) (UniProt P24941+P20248)
[38] = biological target: SGK2 (human) (UniProt Q9HBY8)
[39] = biological target: PHKG1 (human) (UniProt Q16816)
[40] = biological target: WNK3 (human) (UniProt Q9BYP7)
[41] = biological target: WEE1 (human) (UniProt P30291)
[42] = biological target: PAK1 (human) (UniProt Q13153)

**Q.** Which residual activity [1] does the source give for O=C1Nc2ccccc2/C1=C\c1c(Cl)[nH]c2ccccc12 here?
**A.** The residual activity was 103%.

**Q.** What about the residual activity [2] of the same compound?
**A.** The residual activity was 98.5%.

**Q.** What about the residual activity [3] of the same compound?
**A.** The residual activity was 101%.

**Q.** What about the residual activity [4] of the same compound?
**A.** Its residual activity is 102%.

**Q.** What about the residual activity [5] of the same compound?
**A.** Its residual activity is 109%.

**Q.** And the residual activity [6]?
**A.** The residual activity was 101%.

**Q.** What about the residual activity [7] of the same compound?
**A.** The residual activity was 96.5%.

**Q.** What about the residual activity [8] of the same compound?
**A.** The residual activity was 95%.

**Q.** What about the residual activity [9] of the same compound?
**A.** The residual activity was 102%.

**Q.** And the residual activity [10]?
**A.** Its residual activity is 104%.

**Q.** And the residual activity [11]?
**A.** Its residual activity is 112%.

**Q.** What about the residual activity [12] of the same compound?
**A.** The residual activity was 100%.

**Q.** And the residual activity [13]?
**A.** Its residual activity is 98.8%.

**Q.** And the residual activity [14]?
**A.** Its residual activity is 99.6%.

**Q.** And the residual activity [15]?
**A.** Its residual activity is 83.4%.

**Q.** And the residual activity [16]?
**A.** The residual activity was 85.5%.

**Q.** And the residual activity [17]?
**A.** Its residual activity is 91.2%.

**Q.** And the residual activity [18]?
**A.** Its residual activity is 94.6%.

**Q.** What about the residual activity [19] of the same compound?
**A.** The residual activity was 93%.

**Q.** What about the residual activity [20] of the same compound?
**A.** The residual activity was 81.5%.

**Q.** What about the residual activity [21] of the same compound?
**A.** The residual activity was 92.6%.

**Q.** What about the residual activity [22] of the same compound?
**A.** Its residual activity is 85.7%.

**Q.** What about the residual activity [23] of the same compound?
**A.** Its residual activity is 121%.

**Q.** And the residual activity [24]?
**A.** The residual activity was 91.9%.

**Q.** And the residual activity [25]?
**A.** The residual activity was 93.4%.

**Q.** And the residual activity [26]?
**A.** Its residual activity is 90.1%.

**Q.** What about the residual activity [27] of the same compound?
**A.** The residual activity was 98.8%.

**Q.** And the residual activity [28]?
**A.** Its residual activity is 106%.

**Q.** And the residual activity [29]?
**A.** The residual activity was 90.2%.

**Q.** What about the residual activity [30] of the same compound?
**A.** Its residual activity is 105%.

**Q.** And the residual activity [31]?
**A.** The residual activity was 106%.

**Q.** What about the residual activity [32] of the same compound?
**A.** The residual activity was 116%.

**Q.** And the residual activity [33]?
**A.** Its residual activity is 97.9%.

**Q.** What about the residual activity [34] of the same compound?
**A.** Its residual activity is 95.1%.

**Q.** What about the residual activity [35] of the same compound?
**A.** The residual activity was 93.5%.

**Q.** And the residual activity [36]?
**A.** The residual activity was 96%.

**Q.** And the residual activity [37]?
**A.** Its residual activity is 91.5%.

**Q.** And the residual activity [38]?
**A.** The residual activity was 103%.

**Q.** What about the residual activity [39] of the same compound?
**A.** Its residual activity is 85.4%.

**Q.** And the residual activity [40]?
**A.** The residual activity was 101%.

**Q.** And the residual activity [41]?
**A.** Its residual activity is 107%.

**Q.** And the residual activity [42]?
**A.** Its residual activity is 92.8%.

**Q.** O=c1cc(N2CCNCC2)oc2c(-c3ccccc3)cccc12 was tested. Which residual activity [1] did it give?
**A.** Its residual activity is 116%.

**Q.** And the residual activity [2]?
**A.** The residual activity was 97.9%.

**Q.** And the residual activity [3]?
**A.** Its residual activity is 90.4%.

**Q.** What about the residual activity [4] of the same compound?
**A.** Its residual activity is 104%.

**Q.** What about the residual activity [5] of the same compound?
**A.** Its residual activity is 107%.

**Q.** And the residual activity [6]?
**A.** Its residual activity is 102%.

**Q.** What about the residual activity [7] of the same compound?
**A.** Its residual activity is 108%.

**Q.** What about the residual activity [8] of the same compound?
**A.** The residual activity was 102%.

**Q.** What about the residual activity [9] of the same compound?
**A.** The residual activity was 97.5%.

**Q.** What about the residual activity [10] of the same compound?
**A.** Its residual activity is 92.1%.

**Q.** And the residual activity [11]?
**A.** Its residual activity is 109%.

**Q.** And the residual activity [12]?
**A.** The residual activity was 97.8%.

**Q.** And the residual activity [13]?
**A.** Its residual activity is 99.8%.

**Q.** And the residual activity [14]?
**A.** The residual activity was 95.4%.

**Q.** What about the residual activity [15] of the same compound?
**A.** The residual activity was 101%.

**Q.** What about the residual activity [16] of the same compound?
**A.** The residual activity was 99.1%.

**Q.** And the residual activity [17]?
**A.** The residual activity was 133%.

**Q.** What about the residual activity [18] of the same compound?
**A.** Its residual activity is 97.3%.

**Q.** What about the residual activity [19] of the same compound?
**A.** The residual activity was 106%.

**Q.** And the residual activity [20]?
**A.** Its residual activity is 89.6%.

**Q.** What about the residual activity [21] of the same compound?
**A.** The residual activity was 101%.

**Q.** What about the residual activity [22] of the same compound?
**A.** The residual activity was 94.5%.

**Q.** And the residual activity [23]?
**A.** The residual activity was 104%.

**Q.** What about the residual activity [24] of the same compound?
**A.** The residual activity was 95.3%.

**Q.** What about the residual activity [25] of the same compound?
**A.** The residual activity was 100%.

**Q.** What about the residual activity [26] of the same compound?
**A.** Its residual activity is 97.4%.

**Q.** And the residual activity [27]?
**A.** Its residual activity is 96.9%.

**Q.** And the residual activity [28]?
**A.** Its residual activity is 102%.

**Q.** And the residual activity [29]?
**A.** Its residual activity is 87.5%.

**Q.** What about the residual activity [30] of the same compound?
**A.** The residual activity was 103%.

**Q.** And the residual activity [31]?
**A.** The residual activity was 92.8%.

**Q.** And the residual activity [32]?
**A.** Its residual activity is 105%.

**Q.** And the residual activity [33]?
**A.** The residual activity was 83.8%.

**Q.** And the residual activity [34]?
**A.** The residual activity was 104%.

**Q.** What about the residual activity [35] of the same compound?
**A.** The residual activity was 107%.

**Q.** And the residual activity [36]?
**A.** The residual activity was 99.3%.

**Q.** And the residual activity [37]?
**A.** The residual activity was 104%.

**Q.** And the residual activity [38]?
**A.** The residual activity was 102%.

**Q.** And the residual activity [39]?
**A.** The residual activity was 90.7%.

**Q.** What about the residual activity [40] of the same compound?
**A.** The residual activity was 93.4%.

**Q.** What about the residual activity [41] of the same compound?
**A.** Its residual activity is 83.4%.

**Q.** What about the residual activity [42] of the same compound?
**A.** The residual activity was 99%.
